Converted amounts (≈) assume the structure as drawn. Like-named read-outs stand apart in the source and are kept apart here.
Columns and labels:
[1] = cited from earlier work
[2] = rats; cited from earlier work
[3] = Solubility in simulated lung fluid (SLF); format: physicochemical; settings: for solubility in SLF: 25° C., 24 h
Protocol: The composition and preparation of simulated lung fluid (SLF) were adapted from Hassoun's study (Hassoun et al., 2018). SLF contained dipalmitoylphosphotidylcholine (DPPC), cholesterol, albumin, transferrin, ascorbic acid and Hank's balanced salt solution (HBSS). The SLF was prepared by two steps including a preparation of liposomal dispersion and freeze drying as described in Hassoun et al. (Hassoun et al., 2018). In the first step, a liposomal dispersion was prepared by mixing 2.12 mL of 25 mg/mL DPPC and 5 μL of 200 mg/mL cholesterol in chloroform. Then, the solution was dried using an evaporator until the dry film was obtained. The thin film of lipid was dispersed by adding 8 mL of 57 mg/mL bovine serum albumin in water, 1 mL of 15 mg/mL transferrin in water, and 88.5 μL of 10 mM ascorbate solution. The mixture was sonicated until it fully dispersed. The dispersion was adjusted to 10 mL by adding 1M HBSS). The dispersion was frozen at −20° C. for 6 h, and primary dried in the lyophilizer at −40° C. for 30 h and ramp to 25° C. for 12 h and finally secondary dried at 25° C. for 20 h. The lyophilized SLF was stored at 2-8° C. and reconstituted with purified water upon solubility and dissolution testing.
The excess amount of powder was added in SLF until precipitation occurred. Then the samples were shaken on the orbital shaker at 250 rpm and 25° C. for 24 h. The samples were collected and centrifuged at 13,000 rpm for 15 min. The supernatants were collected and then diluted with DMSO/acetonitrile (10/90). The samples were centrifuged again at 13,000 rpm for 15 min to separate proteins in SLF. The supernatants were collected and analyzed by HPLC.

[4] = test system: SARS-CoV-2; settings: Pruijssers et al., 2020, cited from earlier work
[5] = test system: SAR-CoV-2; settings: cited from earlier work

Question: What does the source list for CCC(CC)COC(=O)[C@H](C)N[P@](=O)(OC[C@H]1O[C@@](C#N)(c2ccc3c(N)ncnn23)[C@H](O)[C@@H]1O)Oc1ccccc1 [remdesivir]?
Answer: half-life ([1]; humans, multiple IV administrations once a day): about 1 h; half-life of remdesivir in plasma [2]: less than 0.9 min

Question: For CCC(CC)COC(=O)[C@H](C)N[P@](=O)(OC[C@H]1O[C@@](C#N)(c2ccc3c(N)ncnn23)[C@H](O)[C@@H]1O)Oc1ccccc1 [crystalline remdesivir, remdesivir], which “solubility in SLF” value [3] is on record?
Answer: 0.03 ± 0.001 mg/mL (≈ 49.8 µM)

Question: With N#C[C@@]1(c2ccc3c(N)ncnn23)O[C@H](CO)[C@@H](O)[C@H]1O [GS-441524] as the molecule, how does the half-life ([1]; human, in vivo, iv) read?
Answer: approximately 24.5 h

Question: What about the EC50 ([4]; Calu3 2B4 cells, read-out: EC50) of the same molecule?
Answer: 620 nM

Question: What about the EC50 ([4]; Calu-3 2B4 cells) of the same molecule?
Answer: 180.6 ng/mL

Question: What about the EC50 ([5]; human airway epithelial (HAE), Agostini et al., 2018) of the same molecule?
Answer: 52.43 ng/mL

Question: What about the EC50 ([5]; read-out: EC50) of the same molecule?
Answer: 180 nM

Question: With CCC(CC)COC(=O)[C@H](C)N[P@](=O)(OC[C@H]1O[C@@](C#N)(c2ccc3c(N)ncnn23)[C@H](O)[C@@H]1O)Oc1ccccc1 [amorphous remdesivir, remdesivir] as the molecule, how does the “increase in solubility compared to crystalline neat remdesivir” value [3] read?
Answer: 20 fold

Question: What about the “solubility of amorphous versus crystalline remdesivir” value [3] of the same molecule?
Answer: about 20 times

Question: What about the “solubility in SLF” value [3] of the same molecule?
Answer: 0.59 ± 0.01 mg/mL (≈ 979 µM)

Reference: patent US20230263816A1, “PHARMACEUTICAL COMPOSITIONS FOR DELIVERY OF REMDESIVIR BY INHALATION” (priority 2020, published 2023)
